Measured values from patent publication US20100278858A1, “PROCESS FOR PREPARING […] STRAINS” (priority 2007, published 2010).

Legend:
HSV-2 (G) = format: cell-based; details: virus HSV-2 (G)
Protocol: (§1) According to the present invention, a method of reducing the viral plates comprises the following process: Vero cells monolayers developed in 24 wells microplates are infected with 50 UFP/well of virus in the absence or presence of different compounds concentrations. Each dilution is tested by duplicate. After 1 hour adsorption at 37° C., the inoculum is removed and covered by plating medium (culture media with methylcellulose at a final concentration of 0.7%). Inoculation is continued till the viral plates' appearance, which are then counted after fitting and dying the cells with violet crystal. Moreover, according to the present invention, 50% inhibitory concentration (IC50) means the compound concentration required for reducing about 50% the number of viral plates.
(§2) Compounds were present during the viral adsorption (1h, 37° C.) and after the infection. When a cytopathic action (ACP) between 80-90%, during a period among 24 to 72 hours p.i., was observed, cells were lysed with freeze-thawing cycles. In order to remove cellular moieties, the cellular lisate was centrifuged during 10 min at 1000 rpm, keeping the supernatant at −70° C. The supernatant was used to infect a new monolayer in the presence of SAMMA or PRO2000. […] The title and the IC50 of each viral passage was determined by viral plates reduction test (or after 2-3 passages) against SAMMA or PRO20000.

HSV-1 TK^− B2006 = assay: method of reducing viral plates (plaque reduction); format: cell-based
Protocol: as §1
(§3) Thus, preliminary tests of the cloned variants of passages with greater selection pressure of 1C3 (17, 20 and 21) with pyrimidine and purine analogous as aciclovir (ACV) and brivudin (BVDU) would disclose alterations at viral TK level as it is shown in Table VIII, a characteristic that, up to date, has not been published in previous art documents. The TK gene is not essential for the in vitro viral replication, though in vivo, is involved in the virulence, pathogenicity and reactivation since latency (Andrei G et al., 2005). […] Therefore, the selection pressure to which the viruses were subjected could have selected mutations in the TK gene and in additional superimposing genes generating strains with less in vivo pathogenic action (Jacobson J et al., 1993).

1C3 syn 21-1 = assay: method of reducing viral plates (plaque reduction); format: cell-based, HSV-1
Protocol: as §1, §3

1C3 syn 17-2 = assay: method of reducing viral plates (plaque reduction); format: cell-based, HSV-1
Protocol: as §1, §3

1C3 syn 17-3 = assay: method of reducing viral plates (plaque reduction); format: cell-based, HSV-1
Protocol: as §1, §3

1C3 syn 17-1 = assay: method of reducing viral plates (plaque reduction); format: cell-based, HSV-1
Protocol: as §1, §3

1C3 syn 20-3 = assay: method of reducing viral plates (plaque reduction); format: cell-based, HSV-1
Protocol: as §1, §3

1C3 syn 21-2 = assay: method of reducing viral plates (plaque reduction); format: cell-based, HSV-1
Protocol: as §1, §3

1C3 syn 21-3 = assay: method of reducing viral plates (plaque reduction); format: cell-based, HSV-1
Protocol: as §1, §3

1C3 syn 20-2 = assay: method of reducing viral plates (plaque reduction); format: cell-based, HSV-1
Protocol: as §1, §3

1C3 syn 20-1 = assay: method of reducing viral plates (plaque reduction); format: cell-based, HSV-1
Protocol: as §1, §3

Pro2000-13-10 = assay: method of reducing viral plates (plaque reduction); format: cell-based, HSV-2
Protocol: as §1, §2
(§4) By the end of a year, the corresponding virus to passages 13 and 16 in the presence of PRO2000 and SAMMA, respectively, were cloned in monolayers of Vero cells developed in 6 wells plates. The cellular monolayers were infected with a limited dilution of virus and were coated with maintenance media (MM) containing agarose 0.6%. After 2 days incubation, cells were dyed with neutral red and clones were stippled. For clone amplification, Vero cells with each selected clone were infected; after 1 hour adsorption at 37° C., the innoculum was discarded and was covered with MM, subjected to incubation 24-48 h at 37° C. till ACP development was observed.

Pro2000-syn13-1 = assay: method of reducing viral plates (plaque reduction); format: cell-based, HSV-2
Protocol: as §1, §2, §4

SAMMA-15-7 = assay: method of reducing viral plates (plaque reduction); format: cell-based, HSV-2
Protocol: as §1, §2, §4

Pro2000-13-5 = assay: method of reducing viral plates (plaque reduction); format: cell-based, HSV-2
Protocol: as §1, §2, §4

Pro2000-syn13-9 = assay: method of reducing viral plates (plaque reduction); format: cell-based, HSV-2
Protocol: as §1, §2, §4

SAMMA-15-3 = assay: method of reducing viral plates (plaque reduction); format: cell-based, HSV-2
Protocol: as §1, §2, §4

1C3-syn-13-8 = assay: method of reducing viral plates (plaque reduction); format: cell-based, HSV-1
Protocol: as §1, §2

1C3-syn-14-1 = assay: method of reducing viral plates (plaque reduction); format: cell-based, HSV-1
Protocol: as §1, §2

HSV-1 (F) = assay: method of reducing viral plates (plaque reduction); format: cell-based
Protocol: as §1, §2

Substance: Heparine
- IC50 (HSV-2 (G)): 1.8 µg/mL
- Relative resistance (RR) (HSV-1 TK^− B2006; IC50 of HSV-1 TK^− B2006 / IC50 of HSV-1 (F)): 3.0
- IC50 (HSV-1 TK^− B2006; strain HSV-1 TK^− B2006): 3.5 µg/mL
- Relative resistance (RR) (1C3 syn 21-1; IC50 of clone 1C3 syn 21-1 / IC50 of HSV-1 (F)): 8.0
- IC50 (1C3 syn 21-1; strain 1C3 syn 21-1): 10.0 µg/mL
- Relative resistance (RR) (1C3 syn 17-2; IC50 of clone 1C3 syn 17-2 / IC50 of HSV-1 (F)): > 16.0
- IC50 (1C3 syn 17-2; strain 1C3 syn 17-2): > 20 µg/mL
- Relative resistance (RR) (1C3 syn 17-3; IC50 of clone 1C3 syn 17-3 / IC50 of HSV-1 (F)): 5.7
- IC50 (1C3 syn 17-3; strain 1C3 syn 17-3): 7.1 µg/mL
- Relative resistance (RR) (1C3 syn 17-1; IC50 of clone 1C3 syn 17-1 / IC50 of HSV-1 (F)): 8.0
- IC50 (1C3 syn 17-1; strain 1C3 syn 17-1): 10.0 µg/mL
- Relative resistance (RR) (1C3 syn 20-3; IC50 of clone 1C3 syn 20-3 / IC50 of HSV-1 (F)): > 16.0
- IC50 (1C3 syn 20-3; strain 1C3 syn 20-3): > 20 µg/mL
- Relative resistance (RR) (1C3 syn 21-2; IC50 of clone 1C3 syn 21-2 / IC50 of HSV-1 (F)): 8.0
- IC50 (1C3 syn 21-2; strain 1C3 syn 21-2): 10.0 µg/mL
- Relative resistance (RR) (1C3 syn 21-3; IC50 of clone 1C3 syn 21-3 / IC50 of HSV-1 (F)): 5.7
- IC50 (1C3 syn 21-3; strain 1C3 syn 21-3): 7.1 µg/mL
- Relative resistance (RR) (1C3 syn 20-2; IC50 of clone 1C3 syn 20-2 / IC50 of HSV-1 (F)): > 16.0
- IC50 (1C3 syn 20-2; strain 1C3 syn 20-2): > 20 µg/mL
- Relative resistance (RR) (1C3 syn 20-1; IC50 of clone 1C3 syn 20-1 / IC50 of HSV-1 (F)): > 16.0
- IC50 (1C3 syn 20-1; strain 1C3 syn 20-1): > 20 µg/mL
- RR (relative resistance) (Pro2000-13-10; IC50 of variant Pro2000-13-10 / IC50 for HSV-2 (G)): 1.4
- IC50 (Pro2000-13-10; virus Pro2000-13-10): 2.6 µg/mL
- RR (relative resistance) (Pro2000-syn13-1; IC50 of variant Pro2000-syn13-1 / IC50 for HSV-2 (G)): 4.3
- IC50 (Pro2000-syn13-1; virus Pro2000-syn13-1): 7.8 µg/mL
- RR (relative resistance) (SAMMA-15-7; IC50 of variant SAMMA-15-7 / IC50 for HSV-2 (G)): 6.7
- IC50 (SAMMA-15-7; virus SAMMA-15-7): 12.0 µg/mL
- RR (relative resistance) (Pro2000-13-5; IC50 of variant Pro2000-13-5 / IC50 for HSV-2 (G)): 1.2
- IC50 (Pro2000-13-5; virus Pro2000-13-5): 2.2 µg/mL
- RR (relative resistance) (Pro2000-syn13-9; IC50 of variant Pro2000-syn13-9 / IC50 for HSV-2 (G)): 10.8
- susceptibility of variant to drug (in words) (Pro2000-syn13-9; variant Pro2000-syn-13-9): resistant
- IC50 (Pro2000-syn13-9; virus Pro2000-syn13-9): 19.5 µg/mL
- RR (relative resistance) (SAMMA-15-3; IC50 of variant SAMMA-15-3 / IC50 for HSV-2 (G)): 4.6
- susceptibility of variant to drug (in words) (SAMMA-15-3; variant SAMMA-15-3): resistant
- IC50 (SAMMA-15-3; virus SAMMA-15-3): 8.4 µg/mL
- RR (relative resistance) (1C3-syn-13-8; IC50 of variant 1C3-syn-13-8 / IC50 for HSV-1 (F)): 0.9
- IC50 (1C3-syn-13-8; Table IV, virus 1C3-syn-13-8): 1.2 µg/mL
- susceptibility of variant to drug (in words) (1C3-syn-13-8; variant 1C3-syn-13-8): sensitive
- RR (relative resistance) (1C3-syn-14-1; Table IV, IC50 of variant 1C3-syn-14-1 / IC50 for HSV-1 (F)): 2.9
- IC50 (1C3-syn-14-1; Table IV, virus 1C3-syn-14-1): 4.1 µg/mL
- Relative resistance (RR) (1C3-syn-14-1; Table VIII, IC50 of clone 1C3 syn 14-1 / IC50 of HSV-1 (F)): 5.7
- IC50 (1C3-syn-14-1; Table VIII, strain 1C3 syn 14-1): 7.1 µg/mL
- susceptibility of variant to drug (in words) (1C3-syn-14-1; variant 1C3-syn-14-1): resistant
- IC50 (HSV-1 (F); Table IV, virus HSV-1 (F)): 1.4 µg/mL
- IC50 (HSV-1 (F); Table VIII, strain HSV-1 (F)): 1.25 µg/mL
